# Data from PubChem BioAssay AID2060899 (Molecular Pharmacology Branch, DTP, NCI, 2025).
# pIC50: −log10 of the molar value.
# System: 565726-208-R1-J5-PDC complex spheroids, growth inhibition
# Assay: Anticancer human tumor 565726-208-R1-J5-PDC patient-derived pancreatic adenocarcinoma cell line growth inhibition [RAS]
# Conditions: for pIC50: curve of first compound; for viability, T/C: stronger effect = lower value
# How it was run: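 Agents were tested in combination matrices in half-log decrements from a top concentration at or near clinical Cmax (10 microM if undetermined). Targets were multi-cell spheroids of tumour lines plus HUVEC and MSC stromal cells.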
# [1] = second compound 0.000949 µM, first compound 0.00316 µM
# [2] = second compound 0.000949 µM, first compound 0.01 µM
# [3] = second compound 0.000949 µM, first compound 0.0316 µM
# [4] = second compound 0.000949 µM, first compound 0.1 µM
# [5] = second compound 0.000949 µM, first compound 0.316 µM
# [6] = second compound 0.000949 µM, first compound 1 µM
# [7] = second compound 0.003 µM, first compound 0.00316 µM
# [8] = second compound 0.003 µM, first compound 0.01 µM
# [9] = second compound 0.003 µM, first compound 0.0316 µM
# [10] = second compound 0.003 µM, first compound 0.1 µM
# [11] = second compound 0.003 µM, first compound 0.316 µM
# [12] = second compound 0.003 µM, first compound 1 µM
# [13] = second compound 0.00949 µM, first compound 0.00316 µM
# [14] = second compound 0.00949 µM, first compound 0.01 µM
# [15] = second compound 0.00949 µM, first compound 0.0316 µM
# [16] = second compound 0.00949 µM, first compound 0.1 µM
# [17] = second compound 0.00949 µM, first compound 0.316 µM
# [18] = second compound 0.00949 µM, first compound 1 µM
# [19] = second compound 0.03 µM, first compound 0.00316 µM
# [20] = second compound 0.03 µM, first compound 0.01 µM
# [21] = second compound 0.03 µM, first compound 0.0316 µM
# [22] = second compound 0.03 µM, first compound 0.1 µM
# [23] = second compound 0.03 µM, first compound 0.316 µM
# [24] = second compound 0.03 µM, first compound 1 µM
# [25] = second compound 0.0949 µM, first compound 0.00316 µM
# [26] = second compound 0.0949 µM, first compound 0.01 µM
# [27] = second compound 0.0949 µM, first compound 0.0316 µM
# [28] = second compound 0.0949 µM, first compound 0.1 µM
# [29] = second compound 0.0949 µM, first compound 0.316 µM
# [30] = second compound 0.0949 µM, first compound 1 µM
# [31] = second compound 0.3 µM, first compound 0.00316 µM
# [32] = second compound 0.3 µM, first compound 0.01 µM
# [33] = second compound 0.3 µM, first compound 0.0316 µM
# [34] = second compound 0.3 µM, first compound 0.1 µM
# [35] = second compound 0.3 µM, first compound 0.316 µM
# [36] = second compound 0.3 µM, first compound 1 µM
# 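Also: spheroids exposed to compounds for seven days before readout.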
# 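For viability, T/C in this document: 100% = DMSO vehicle control viability.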
structure (smiles),measurement,setting,value
O=C(c1ccc(F)c(F)c1Nc1ccc(I)cc1F)N1CC(O)([C@@H]2CCCCN2)C1 + CCn1c(-c2cc(N3CCN(C)CC3)cnc2C(C)OC)c2c3cc(ccc31)-c1csc(n1)CC(NC(=O)C1CC1C)C(=O)N1CCCC(N1)C(=O)OCC(C)(C)C2,pIC50,second compound 0.000949 µM,6.99
same,pIC50,second compound 0.003 µM,7.99
same,pIC50,second compound 0.00949 µM,> 8.50
same,pIC50,second compound 0.03 µM,> 8.50
same,pIC50,second compound 0.0949 µM,> 8.50
same,pIC50,second compound 0.3 µM,> 8.50
same,"viability, T/C",[1],66.8%
same,"viability, T/C",[2],59.9%
same,"viability, T/C",[3],63.8%
same,"viability, T/C",[4],49.5%
same,"viability, T/C",[5],29.4%
same,"viability, T/C",[6],9.76%
same,"viability, T/C",[7],55.3%
same,"viability, T/C",[8],49.6%
same,"viability, T/C",[9],40.7%
same,"viability, T/C",[10],25.4%
same,"viability, T/C",[11],14%
same,"viability, T/C",[12],6.79%
same,"viability, T/C",[13],39.3%
same,"viability, T/C",[14],36.5%
same,"viability, T/C",[15],27.8%
same,"viability, T/C",[16],16.7%
same,"viability, T/C",[17],7.84%
same,"viability, T/C",[18],4.42%
same,"viability, T/C",[19],23.9%
same,"viability, T/C",[20],23.5%
same,"viability, T/C",[21],18.2%
same,"viability, T/C",[22],8.87%
same,"viability, T/C",[23],4.75%
same,"viability, T/C",[24],4.55%
same,"viability, T/C",[25],17.6%
same,"viability, T/C",[26],12.8%
same,"viability, T/C",[27],8.13%
same,"viability, T/C",[28],5.18%
same,"viability, T/C",[29],4.88%
same,"viability, T/C",[30],4.22%
same,"viability, T/C",[31],14.9%
same,"viability, T/C",[32],12.6%
same,"viability, T/C",[33],6.29%
same,"viability, T/C",[34],4%
same,"viability, T/C",[35],3.7%
same,"viability, T/C",[36],3.03%
CC1(C)CCC(Nc2ncc(C(F)(F)F)c(-c3c[nH]c4c(P(C)(C)=O)c(C#N)ccc34)n2)CN1 (configuration not stated) + CCn1c(-c2cc(N3CCN(C)CC3)cnc2C(C)OC)c2c3cc(ccc31)-c1csc(n1)CC(NC(=O)C1CC1C)C(=O)N1CCCC(N1)C(=O)OCC(C)(C)C2,pIC50,second compound 0.000949 µM,8.87
same,pIC50,second compound 0.003 µM,> 9.02
same,pIC50,second compound 0.00949 µM,> 9.02
same,pIC50,second compound 0.03 µM,> 9.02
same,pIC50,second compound 0.0949 µM,> 9.02
same,pIC50,second compound 0.3 µM,> 9.02
same,"viability, T/C","second compound 0.000949 µM, first compound 0.000949 µM",54.4%
same,"viability, T/C","second compound 0.000949 µM, first compound 0.003 µM",41.2%
same,"viability, T/C","second compound 0.000949 µM, first compound 0.00949 µM",30.8%
same,"viability, T/C","second compound 0.000949 µM, first compound 0.03 µM",31.5%
same,"viability, T/C","second compound 0.000949 µM, first compound 0.0949 µM",31.6%
same,"viability, T/C","second compound 0.000949 µM, first compound 0.3 µM",34.4%
same,"viability, T/C","second compound 0.003 µM, first compound 0.000949 µM",46.8%
same,"viability, T/C","second compound 0.003 µM, first compound 0.003 µM",40.3%
same,"viability, T/C","second compound 0.003 µM, first compound 0.00949 µM",38.4%
same,"viability, T/C","second compound 0.003 µM, first compound 0.03 µM",28.9%
same,"viability, T/C","second compound 0.003 µM, first compound 0.0949 µM",32.6%
same,"viability, T/C","second compound 0.003 µM, first compound 0.3 µM",29.9%
same,"viability, T/C","second compound 0.00949 µM, first compound 0.000949 µM",37.3%
same,"viability, T/C","second compound 0.00949 µM, first compound 0.003 µM",36.1%
same,"viability, T/C","second compound 0.00949 µM, first compound 0.00949 µM",30.4%
same,"viability, T/C","second compound 0.00949 µM, first compound 0.03 µM",30.7%
same,"viability, T/C","second compound 0.00949 µM, first compound 0.0949 µM",28.1%
same,"viability, T/C","second compound 0.00949 µM, first compound 0.3 µM",28.7%
same,"viability, T/C","second compound 0.03 µM, first compound 0.000949 µM",30%
same,"viability, T/C","second compound 0.03 µM, first compound 0.003 µM",30.9%
same,"viability, T/C","second compound 0.03 µM, first compound 0.00949 µM",26.4%
same,"viability, T/C","second compound 0.03 µM, first compound 0.03 µM",25.5%
same,"viability, T/C","second compound 0.03 µM, first compound 0.0949 µM",28.5%
same,"viability, T/C","second compound 0.03 µM, first compound 0.3 µM",26%
same,"viability, T/C","second compound 0.0949 µM, first compound 0.000949 µM",24.8%
same,"viability, T/C","second compound 0.0949 µM, first compound 0.003 µM",27.1%
same,"viability, T/C","second compound 0.0949 µM, first compound 0.00949 µM",26.1%
same,"viability, T/C","second compound 0.0949 µM, first compound 0.03 µM",24%
same,"viability, T/C","second compound 0.0949 µM, first compound 0.0949 µM",26.8%
same,"viability, T/C","second compound 0.0949 µM, first compound 0.3 µM",23.8%
same,"viability, T/C","second compound 0.3 µM, first compound 0.000949 µM",22.5%
same,"viability, T/C","second compound 0.3 µM, first compound 0.003 µM",23.4%
same,"viability, T/C","second compound 0.3 µM, first compound 0.00949 µM",22.8%
same,"viability, T/C","second compound 0.3 µM, first compound 0.03 µM",22.4%
same,"viability, T/C","second compound 0.3 µM, first compound 0.0949 µM",25.4%
same,"viability, T/C","second compound 0.3 µM, first compound 0.3 µM",21.9%
CC1(C)CCC(Nc2ncc(C(F)(F)F)c(-c3c[nH]c4c(P(C)(C)=O)c(C#N)ccc34)n2)CN1 (configuration not stated),"viability, T/C",compound 0.003 µM,51.3% [middle of 4 runs]
same,"viability, T/C",compound 0.00949 µM,37.9% [middle of 4 runs]
same,"viability, T/C",compound 0.03 µM,31.7% [middle of 4 runs]
same,"viability, T/C",compound 0.0949 µM,36.9% [middle of 4 runs]
same,"viability, T/C",compound 0.3 µM,34.4% [middle of 4 runs]
same,IC50,curve of compound,3.92 nM [middle of 4 runs]
C=CC(=O)N1CCN(c2nc(OCC3CCCN3C)nc3c(F)c(-c4nc(N)cc(C)c4C(F)(F)F)c(Cl)cc23)C(C)C1 (configuration not stated) + CCn1c(-c2cc(N3CCN(C)CC3)cnc2C(C)OC)c2c3cc(ccc31)-c1csc(n1)CC(NC(=O)C1CC1C)C(=O)N1CCCC(N1)C(=O)OCC(C)(C)C2,pIC50,second compound 0.000949 µM,< 6.00
same,pIC50,second compound 0.003 µM,8.20
same,pIC50,second compound 0.00949 µM,> 8.50
same,pIC50,second compound 0.03 µM,> 8.50
same,pIC50,second compound 0.0949 µM,> 8.50
same,pIC50,second compound 0.3 µM,> 8.50
same,"viability, T/C",[1],63.5%
same,"viability, T/C",[2],59.2%
same,"viability, T/C",[3],61.2%
same,"viability, T/C",[4],63.1%
same,"viability, T/C",[5],62.5%
same,"viability, T/C",[6],57.9%
same,"viability, T/C",[7],50.9%
same,"viability, T/C",[8],43.8%
same,"viability, T/C",[9],53.3%
same,"viability, T/C",[10],51.4%
same,"viability, T/C",[11],50.5%
same,"viability, T/C",[12],43.5%
same,"viability, T/C",[13],40.5%
same,"viability, T/C",[14],39.7%
same,"viability, T/C",[15],34%
same,"viability, T/C",[16],41.8%
same,"viability, T/C",[17],39.9%
same,"viability, T/C",[18],34.1%
same,"viability, T/C",[19],29%
same,"viability, T/C",[20],32.3%
same,"viability, T/C",[21],29.9%
same,"viability, T/C",[22],31.7%
same,"viability, T/C",[23],34.5%
same,"viability, T/C",[24],29.4%
same,"viability, T/C",[25],23.1%
same,"viability, T/C",[26],27.1%
same,"viability, T/C",[27],25.5%
same,"viability, T/C",[28],27.5%
same,"viability, T/C",[29],29.2%
same,"viability, T/C",[30],24.3%
same,"viability, T/C",[31],22.6%
same,"viability, T/C",[32],22.1%
same,"viability, T/C",[33],23.2%
same,"viability, T/C",[34],22.1%
same,"viability, T/C",[35],25.6%
same,"viability, T/C",[36],22.6%
